Experimental data reported in patent US9593096B2, “α7 nicotinic acetylcholine receptor modulators and uses thereof-III” (Merck Sharp & Dohme Corp., priority 2013, dated 2017).

Columns and labels:
rat α7 nAChRs = molecular target: T1, rat α7 nAChRs (Rattus norvegicus, UniProt Q05941); assay: Automated planar patch clamp (Patchliner) for α7 nAChR positive allosteric modulation; type: cell-based; design: key to Type I or Type II: I: Type 1 predominately affects the peak current; Type II modulators affect the peak current and also delay the desensitization of the receptor; settings: for activation at 3 µM: GH4-C1, 3 μM compound in the presence of acetylcholine, GH4C1 cells expressing rat α7 nAChRs, relative to control ACh response, read-out: Peak potentiation at 3 μM compound; for Type I or Type II: modulator type based on the electrophysiology trace
T1 construct: expressed in transfected cells; host or cells: GH4C1 (rat pituitary cell line) stably expressing α7 nAChR
Experimental: Compounds of the invention may be evaluated by electrophysiology using a Patchliner® (Nanion Technologies GmbH, Germany), an automated planar patch-clamp platform of medium throughput was used as a first step in electrophysiological assessment of α7 nAChR positive allosteric modulators (PAMs).
Briefly, intracellular (KCl—50 mM, NaCl—10 mM, KF—60 mM, EGTA—20 mM, HEPES—10 mM, pH—7.2, 285 mOsmol) and extracellular (NaCl—140 mM, KCl—4 mM, CaCl2-2 mM, MgCl2—1 mM, HEPES—10 mM, D-Glucose—5 mM, pH—7.4, 298 mOsmol) solutions were automatically pipetted onto NPC-16 chip (medium resistance ˜2.5-2.6 MΩ). Suspension of GH4C1 cells expressing rat α7 nAChRs was introduced in 4 wells of a medium resistance chip and suction was applied to attract cells in the holes. The extracellular solution was subsequently exchanged to high calcium solution (NaCl—80 mM, KCl—3 mM, CaCl2—45 mM, HEPES—10 mM, pH—7.4, 298 mOsmol) followed by gigaohm seal formation and obtaining whole-cell configuration. The rest of protocol was carried out in the high-calcium recording solution. Holding potential was −70 mV throughout the protocol. A control response to 60 or 100 μM of ACh was obtained first. Next, a cell was pre-incubated with compound of interest at 3 μM for ˜30 s after which the compound was co-applied with acetylcholine.
Amplitude of the responses was measured in HEKA Patchmaster software (HEKA Elektronik, Germany) and percentage of potentiation calculated. Recording was repeated […] a minimum of two replicates had been obtained per compound.
Compounds shown in Table 1 were evaluated by automated planar patch clamp on the Patchliner® as described in Example P2.1. […] The compounds are designated either as Type I or Type II modulators based on the electrophysiology trace. Type 1 predominately affects the peak current. Type II modulators affect the peak current and also delay the desensitization of the receptor.

mice = assay: T-maze Continuous Alternation Task (T-CAT), scopolamine-induced cognitive impairment; type: in vivo; settings: mouse, dosed orally at 10 mg/kg, scopolamine-induced disruption of spontaneous alternation
Excerpt: The T-maze Continuous Alternation Task (T-CAT) measures spontaneous alternation, which is the innate tendency of mice to alternate free choices in a T-maze over a series of successive runs. This sequential procedure relies on working memory and is sensitive to various pharmacological manipulations affecting memory processes.
The T-maze apparatus is made of gray Plexiglas with a main stem (55 cm long×10 cm wide×25 cm high) and two arms (30 cm long×10 cm wide×25 cm high) positioned at 90 degree angle relative to the main stem. A start box (15 cm long×10 cm wide) is separated from the main stem by a sliding door. Sliding doors are also provided to close specific arms during the forced-choice alternation task.
The experimental protocol consists of one single session, which starts with 1 “forced-choice” trial, followed by 14 “free-choice” trials. In the first “forced-choice” trial, the animal is confined for 5 s in the start arm and then it is released while either the left or right goal arm is blocked by a sliding door. The animal will negotiate the maze, eventually enter the open goal arm, and return to the start position. Immediately after the return to the start position, the left or right goal door is opened and the animal is allowed to choose freely between the left and right goal arm (“free choice” trials). The animal is considered to have entered an arm when it places four paws in the arm. A session is terminated and the animal is removed from the maze as soon as 14 free-choice trials have been performed or 10 minutes have elapsed, whichever event occurs first. The percentage of alternation over the 14 free-choice trials is determined for each mouse and is used as an index of working memory performance. This percentage is defined as entry in a different arm of the T-maze over successive visits (i.e., left-right-left-right, etc).
Scopolamine administered 20 minutes prior the initiation of the T-maze session is used to induce disruption in the spontaneous alternation of mice. Test compounds are administered 60 minutes prior the start of the T-maze session in order to evaluate their ability to reverse the scopolamine effect.
The apparatus is cleaned between each animal using alcohol (70°). Urine and faeces are removed from the maze. During the trials, animal handling and the visibility of the operator are minimized as much as possible.
The compounds were dosed orally at 10 mg/kg.

T1 sequence (Q05941 23-502): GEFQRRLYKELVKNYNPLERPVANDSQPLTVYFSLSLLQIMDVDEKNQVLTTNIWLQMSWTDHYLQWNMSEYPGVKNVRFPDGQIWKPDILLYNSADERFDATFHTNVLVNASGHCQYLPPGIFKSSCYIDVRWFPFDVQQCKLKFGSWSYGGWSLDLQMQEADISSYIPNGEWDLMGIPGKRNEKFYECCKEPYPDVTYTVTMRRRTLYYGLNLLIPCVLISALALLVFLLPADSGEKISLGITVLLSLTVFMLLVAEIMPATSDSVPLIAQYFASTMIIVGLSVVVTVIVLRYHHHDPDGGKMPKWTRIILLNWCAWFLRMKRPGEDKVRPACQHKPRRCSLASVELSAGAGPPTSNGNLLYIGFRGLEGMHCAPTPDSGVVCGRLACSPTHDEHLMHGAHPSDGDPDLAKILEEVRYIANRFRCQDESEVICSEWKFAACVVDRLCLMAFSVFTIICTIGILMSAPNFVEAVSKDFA

SMILES | activation at 3 µM (rat α7 nAChRs) [%] | Type I or Type II (rat α7 nAChRs) | T-maze % control at 10 mg/kg (mice) [%]
Cc1ccc2c(c1)c(C(=O)Nc1cc(C(F)(F)F)ncn1)cn2C [Example 8, 1,5-dimethyl-N-[6-(trifluoromethyl)pyrimidin-4-yl]-1H-indole-3-carboxamide] | 428 | I | –
O=C(Nc1ccnc(C(F)(F)F)c1)c1cn(CCO)c2ccc(F)cc12 [Example 12, 5-fluoro-1-(2-hydroxyethyl)-N-[2-(trifluoromethyl)pyridin-4-yl]-1H-indole-3-carboxamide] | 257 | I | –
Cn1cc(C(=O)Nc2ccnc(C(F)(F)F)c2)c2cc(F)ccc21 [Example 5, 5-fluoro-1-methyl-N-[2-(trifluoromethyl)pyridin-4-yl]-1H-indole-3-carboxamide] | 326 | I | 78
Cn1cc(-c2ccc3c(c2)c(C(=O)Nc2ccnc(C(F)(F)F)c2)cn3C)cn1 [Example 11, 1-methyl-5-(1-methyl-1H-pyrazol-4-yl)-N-[2-(trifluoromethyl)pyridin-4-yl]-1H-indole-3-carboxamide] | 78 | I | –
CCn1cc(C(=O)Nc2cc(C(F)(F)F)ncn2)c2cc(F)ccc21 [Example 2, 1-ethyl-5-fluoro-N-[6-(trifluoromethyl)pyrimidin-4-yl]-1H-indole-3-carboxamide] | – | I | 76
CCn1cc(C(=O)Nc2cncc(F)c2)c2cc(F)ccc21 [Example 1, 1-ethyl-5-fluoro-N-(5-fluoropyridin-3-yl)-1H-indole-3-carboxamide] | – | I | 70
CCn1cc(C(=O)Nc2ccc(C(F)(F)F)nc2)c2cc(F)ccc21 [Example 3, 1-ethyl-5-fluoro-N-[6-(trifluoromethyl)pyridin-3-yl]-1H-indole-3-carboxamide] | – | – | 73
Cn1cc(C(=O)Nc2cncc(F)c2)c2cc(C(F)(F)F)ccc21 [Example 10, N-(5-fluoropyridin-3-yl)-1-methyl-5-(trifluoromethyl)-1H-indole-3-carboxamide] | 41 | I | –
CC(C)n1cc(C(=O)Nc2cncc(F)c2)c2cc(F)ccc21 [Example 6, 5-fluoro-N-(5-fluoropyridin-3-yl)-1-(propan-2-yl)-1H-indole-3-carboxamide] | 374 | I | –
Cn1cc(C(=O)Nc2ccnc(C(F)(F)F)c2)c2cc(C(F)(F)F)ccc21 [Example 9, 1-methyl-5-(trifluoromethyl)-N-[2-(trifluoromethyl)pyridin-4-yl]-1H-indole-3-carboxamide] | 83 | I | –
CCn1cc(C(=O)Nc2ccnc(C(F)(F)F)n2)c2cc(F)ccc21 [Example 4, 1-ethyl-5-fluoro-N-[2-(trifluoromethyl)pyrimidin-4-yl]-1H-indole-3-carboxamide] | 30 | I | –
Cc1ccc2c(c1)c(C(=O)Nc1ccnc(C(F)(F)F)c1)cn2C [Example 7, 1,5-dimethyl-N-[2-(trifluoromethyl)pyridin-4-yl]-1H-indole-3-carboxamide] | 663 | I | 80
